Results published in US20250041278A1, “TLR8 AGONIST FOR MODULATING IMMUNE RESPONSE” (The Children's Medical Center Corporation, priority 2021, published 2025).

Columns and labels:
null HEK cells = assay: HEK-Null reporter cell line (reporter gene only); assay type: cell-based, human; conditions: negative control cells, even at higher concentrations
Experimental: (§1) FIGS. 3A-3E. PVP-179 is a TLR8 agonist. FIG. 3A: PVP-179 was sent to InvivoGen for PRR ligand screening service. Various cells lines were utilized to screen for PVP-179-induced ([…]) activation of TLRs, NOD1/2, RIG-I/MDA-5, Dectin-1 or Mincle receptor. The heat-map depicts percentage activity compared to the positive control for each receptor. FIG. 3B: PVP-179 induced activity (% activity compared to the positive control: CL075 at 1 μg/mL) in HEK-293 cells specifically expressing hTLR8. In brief, these cells have an NF-κB/AP-1-inducible secreted embryonic alkaline phosphatase (SEAP) reporter gene which allows monitoring of signaling via TLR8. After incubation for 16-24 hours, supernatant harvested from the cells is mixed with media containing SEAP-substrate and the optical density (OD) is measured at 650 nm using a spectrophotometer. FIG. 3C: As in FIG. 3B, HEK cells specifically expressing hTLR2, hTLR7, or hTLR8, in addition to the HEK-Null cell line carrying only the reporter gene, were stimulated with the indicated concentrations of PVP-179. […] PVP-179 activity is expressed as a percentage of NF-κB induced in the cells stimulated with TNF (positive control for each cell line). […] The supernatants were harvested after 20-24 hours and SEAP production (to assess NF-κB activity) was measured using QUANTIBlue assay. […]

[1] = test system: human monocyte derived dendritic cells; assay: TNF ELISA in human monocyte derived dendritic cells (MoDCs); assay type: cell-based; conditions: 20-24 hours
Experimental: FIGS. 4A-4D. PVP-179 activates human macrophages and dendritic cells. FIGS. 4A-4B: Murine mononuclear cells were isolated from bone marrow and induced differentiation into dendritic cells (with GM-CSF and IL-4). After 5 days of culturing, these bone-marrow-derived dendritic cells (BMDCs) were stimulated with PVP-179 or MPLA for 18 hours at indicated concentrations. The supernatants were analyzed via ELISA where each dot in the graph represents the mean production of mTNF (FIG. 4A) and mIL-6 (FIG. 4B). N=6 for PVP-179, N=3 for MPLA. Two-way Anova was performed to determine statistical significance. The comparisons shown are compared to control group (0 M PVP-179). FIGS. 4C-4D: PBMCs were isolated from blood of adult human donors. CD14+ monocytes were specifically isolated from the PBMCs and were then cultured in 10% autologous plasma and induced to differentiate into macrophages with M-CSF (FIG. 4C), or dendritic cells with GM-CSF and IL-4 (FIG. 4D). After 5 days, cells were harvested from each differentiated cell type (macrophages: Mφ; dendritic cells: MoDCs) and a 96-well plate was setup with 100,000 cells/well. Cells were then stimulated with indicated concentrations of PVP-179 or R848 (33 μM) or LPS (100 ng/mL). After 20-24 hours of incubation, supernatants were harvested and applied to TNF ELISA. N=2 donors.

human (h)TLR8 = molecular target: T1, human (h)TLR8 (Homo sapiens, UniProt Q9NR97); assay: PRR ligand screening (InvivoGen) in reporter cell lines; assay type: cell-based; conditions: HEK reporter cells; % activity vs positive control
T1 construct: host or cells: HEK-293 reporter cells
T1 sequence (Q9NR97 27-1041): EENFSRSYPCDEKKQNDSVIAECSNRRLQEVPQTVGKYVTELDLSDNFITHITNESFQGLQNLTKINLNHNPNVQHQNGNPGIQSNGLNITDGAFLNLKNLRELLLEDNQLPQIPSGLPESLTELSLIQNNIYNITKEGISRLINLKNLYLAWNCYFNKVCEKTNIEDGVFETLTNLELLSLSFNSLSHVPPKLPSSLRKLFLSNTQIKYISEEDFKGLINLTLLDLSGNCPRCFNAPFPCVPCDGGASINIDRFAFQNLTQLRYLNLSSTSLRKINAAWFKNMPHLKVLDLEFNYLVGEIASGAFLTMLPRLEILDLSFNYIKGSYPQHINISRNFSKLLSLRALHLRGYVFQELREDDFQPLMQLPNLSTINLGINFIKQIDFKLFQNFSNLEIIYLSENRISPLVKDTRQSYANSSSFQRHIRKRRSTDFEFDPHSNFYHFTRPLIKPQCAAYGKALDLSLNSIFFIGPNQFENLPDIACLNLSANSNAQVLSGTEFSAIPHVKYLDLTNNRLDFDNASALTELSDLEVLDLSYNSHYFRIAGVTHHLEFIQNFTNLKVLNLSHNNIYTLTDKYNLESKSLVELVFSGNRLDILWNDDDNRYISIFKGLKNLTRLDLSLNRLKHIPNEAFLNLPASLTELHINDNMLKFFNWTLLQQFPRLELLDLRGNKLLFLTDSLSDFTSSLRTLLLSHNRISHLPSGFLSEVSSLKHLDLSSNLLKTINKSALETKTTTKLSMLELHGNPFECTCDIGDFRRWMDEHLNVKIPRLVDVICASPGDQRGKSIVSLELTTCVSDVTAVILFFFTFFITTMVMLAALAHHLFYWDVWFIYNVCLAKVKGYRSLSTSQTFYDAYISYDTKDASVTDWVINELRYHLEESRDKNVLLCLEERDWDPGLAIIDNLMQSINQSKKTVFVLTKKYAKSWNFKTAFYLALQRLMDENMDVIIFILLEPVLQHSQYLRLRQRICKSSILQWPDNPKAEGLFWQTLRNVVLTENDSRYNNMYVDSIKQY
Experimental: as §1

`CCCCn1c(/N=C/c2nc3ccccc3n2C)nc2ccccc21` [PVP-179] was tested, and the “NF-κB activity in null HEK cells” value (null HEK cells) was “no activity was detected”, the TNF-inducing activity [1] was “concentration-dependent activity” and the “activity among all TLRs and other receptors tested” value (human (h)TLR8) was “maximal activity toward human (h)TLR8”.
